These compounds were tested against EZH2 within the PRC2 complex (Homo sapiens (Human), UniProt Q15910) (assay: EZH2 methyltransferase scintillation proximity assay (SPA) with PRC2 complex). Conditions: 3H-SAM methyl transfer to Histone H3 of HeLa mononucleosomes; 30 min preincubation, 1 hour reaction.
Format: biochemical
Procedure: Compounds contained herein were evaluated for their ability to inhibit the methyltransferase activity of EZH2 within the PRC2 complex. Human PRC2 complex was prepared by co-expressing each of the 5 member proteins (FLAG-EZH2, EED, SUZ12, RbAp48, AEBP2) in Sf9 cells followed by co-purification. Enzyme activity was measured in a scintillation proximity assay (SPA) where a tritiated methyl group is transferred from 3H-SAM to a lysine residue on Histone H3 of a mononucleosome, purified from HeLa cells. Mononucleosomes were captured on SPA beads and the resulting signal is read on a ViewLux plate reader.
Part A. Compound Preparation
• 1. Prepare 10 mM stock of compounds from solid in 100% DMSO. • 2. Set up an 11-point serial dilution (1:3 dilution, top concentration 10 mM) in 100% DMSO for each test compound in a 384 well plate leaving columns 6 and 18 for DMSO controls. • 3. Dispense 100 nL of compound from the dilution plate into reaction plates (Grenier Bio-One, 384-well, Cat #784075). Part B. Reagent Preparation Prepare the Following Solutions: • 1. 50 mM Tris-HCl, pH 8: Per 1 L of base buffer, combine 1 M Tris-HCl, pH 8 (50 mL) and distilled water (950 mL). • 2. 1× Assay Buffer: Per 10 mL of 1× Assay Buffer, combine 50 mM Tris-HCl, pH 8 (9958 uL), 1 M MgCl2 (20 uL), 2 M DTT (20 uL), and 10% Tween-20 (2 uL) to provide a final concentration of 50 mM Tris-HCl, pH 8, 2 mM MgCl2, 4 mM DTT, 0.002% Tween-20. • 3. 2× Enzyme Solution: Per 10 mL of 2× Enzyme Solution, combine 1× Assay Buffer and PRC2 complex to provide a final enzyme concentration of 10 nM. • 4. SPA Bead Suspension: Per 1 mL of SPA Bead Suspension, combine PS-PEI coated LEADSeeker beads (40 mg) and ddH2O (1 mL) to provide a final concentration of 40 mg/mL. • 5. 2× Substrate Solution: Per 10 mL of 2× Substrate Solution, combine 1× Assay Buffer (9728.55 uL), 800 ug/mL mononucleosomes (125 uL), 1 mM cold SAM (4 uL), and 7.02 uM 3H-SAM (142.45 uL; 0.55 mCi/mL) to provide a final concentration of 5 ug/mL nucleosomes, 0.2 uM cold SAM, and 0.05 uM 3H-SAM. • 6. 2.67× Quench/Bead Mixture: Per 10 mL of 2.67× Quench/Bead Mixture, combine ddH2O (9358 uL), 10 mM cold SAM (267 uL), 40 mg/mL Bead Suspension (375 uL) to provide a final concentration of 100 uM cold SAM and 0.5 mg/mL SPA beads. Part C. Assay Reaction in 384-Well Grenier Bio-One Plates Compound Addition • 1. Dispense 100 nL/well of 100× Compound to test wells (as noted above). • 2. Dispense 100 nL/well of 100% DMSO to columns 6 & 18 for high and low controls, respectively. Assay • 1. Dispense 5 uL/well of 1× Assay Buffer to column 18 (low control reactions). • 2. Dispense 5 uL/well of 2× Enzyme Solution to columns 1-17, 19-24. • 3. Spin assay plates for ˜1 minute at 500 rpm. • 4. Stack the assay plates, covering the top plate. • 5. Incubate the compound/DMSO with the enzyme for 30 minutes at room temperature. • 6. Dispense 5 uL/well of 2× Substrate Solution to columns 1-24. • 7. Spin assay plates for ˜1 minute at 500 rpm. • 8. Stack the assay plates, covering the top plate. • 9. Incubate the assay plates at room temperature for 1 hour. Quench/Bead Addition • 1. Dispense 5 uL/well of the 3× Quench/Bead Mixture to columns 1-24. • 2. Seal the top of each assay plate with adhesive TopSeal. • 3. Spin assay plates for ˜1 minute at 500 rpm. • 4. Equilibrate the plates for >20 min. Read Plates • 1. Read the assay plates on the Viewlux Plate Reader utilizing the 613 nm emission filter with a 300 s read time. Reagent addition can be done manually or with automated liquid handler. • The final DMSO concentration in this assay is 1%. • The positive control is in column 6; negative control is in column 18. • Final starting concentration of compounds is 100 μM. Results
Percent inhibition was calculated relative to the DMSO control for each compound concentration and the resulting values were fit using standard IC50 fitting parameters within the ABASE data fitting software package.

EZH2 within the PRC2 complex, sequence (Q15910 whole entry): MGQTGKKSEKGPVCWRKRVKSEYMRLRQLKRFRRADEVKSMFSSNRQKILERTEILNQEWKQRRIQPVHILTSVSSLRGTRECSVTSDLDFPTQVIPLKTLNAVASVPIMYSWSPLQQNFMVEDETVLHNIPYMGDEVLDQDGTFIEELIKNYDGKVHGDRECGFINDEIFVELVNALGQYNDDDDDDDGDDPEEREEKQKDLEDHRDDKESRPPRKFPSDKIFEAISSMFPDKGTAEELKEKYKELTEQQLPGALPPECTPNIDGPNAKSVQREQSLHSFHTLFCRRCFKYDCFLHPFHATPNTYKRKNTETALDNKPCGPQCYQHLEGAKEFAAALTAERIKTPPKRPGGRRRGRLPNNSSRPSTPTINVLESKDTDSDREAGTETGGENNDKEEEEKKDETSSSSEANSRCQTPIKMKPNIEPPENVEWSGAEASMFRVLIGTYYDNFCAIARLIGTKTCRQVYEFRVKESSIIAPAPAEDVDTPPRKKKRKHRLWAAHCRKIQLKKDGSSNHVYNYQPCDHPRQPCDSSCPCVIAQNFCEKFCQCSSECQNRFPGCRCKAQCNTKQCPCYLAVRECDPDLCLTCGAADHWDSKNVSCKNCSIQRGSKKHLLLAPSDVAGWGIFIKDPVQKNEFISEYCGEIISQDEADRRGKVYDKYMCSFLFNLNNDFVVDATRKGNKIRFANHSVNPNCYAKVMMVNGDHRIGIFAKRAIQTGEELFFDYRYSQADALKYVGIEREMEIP
EZH2 within the PRC2 complex, sequence (O75530 whole entry partner): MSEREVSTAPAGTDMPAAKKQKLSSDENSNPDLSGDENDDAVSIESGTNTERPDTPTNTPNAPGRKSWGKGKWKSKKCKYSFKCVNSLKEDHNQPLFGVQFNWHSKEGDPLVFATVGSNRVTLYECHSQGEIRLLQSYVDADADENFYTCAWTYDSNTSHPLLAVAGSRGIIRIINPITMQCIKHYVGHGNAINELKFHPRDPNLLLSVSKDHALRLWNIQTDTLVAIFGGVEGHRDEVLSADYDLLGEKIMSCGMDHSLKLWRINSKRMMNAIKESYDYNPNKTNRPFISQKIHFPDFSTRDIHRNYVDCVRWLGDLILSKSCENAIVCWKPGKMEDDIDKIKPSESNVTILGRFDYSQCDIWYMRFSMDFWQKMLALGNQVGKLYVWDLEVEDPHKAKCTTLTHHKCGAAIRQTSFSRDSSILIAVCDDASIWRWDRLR
EZH2 within the PRC2 complex, sequence (Q15022 whole entry partner): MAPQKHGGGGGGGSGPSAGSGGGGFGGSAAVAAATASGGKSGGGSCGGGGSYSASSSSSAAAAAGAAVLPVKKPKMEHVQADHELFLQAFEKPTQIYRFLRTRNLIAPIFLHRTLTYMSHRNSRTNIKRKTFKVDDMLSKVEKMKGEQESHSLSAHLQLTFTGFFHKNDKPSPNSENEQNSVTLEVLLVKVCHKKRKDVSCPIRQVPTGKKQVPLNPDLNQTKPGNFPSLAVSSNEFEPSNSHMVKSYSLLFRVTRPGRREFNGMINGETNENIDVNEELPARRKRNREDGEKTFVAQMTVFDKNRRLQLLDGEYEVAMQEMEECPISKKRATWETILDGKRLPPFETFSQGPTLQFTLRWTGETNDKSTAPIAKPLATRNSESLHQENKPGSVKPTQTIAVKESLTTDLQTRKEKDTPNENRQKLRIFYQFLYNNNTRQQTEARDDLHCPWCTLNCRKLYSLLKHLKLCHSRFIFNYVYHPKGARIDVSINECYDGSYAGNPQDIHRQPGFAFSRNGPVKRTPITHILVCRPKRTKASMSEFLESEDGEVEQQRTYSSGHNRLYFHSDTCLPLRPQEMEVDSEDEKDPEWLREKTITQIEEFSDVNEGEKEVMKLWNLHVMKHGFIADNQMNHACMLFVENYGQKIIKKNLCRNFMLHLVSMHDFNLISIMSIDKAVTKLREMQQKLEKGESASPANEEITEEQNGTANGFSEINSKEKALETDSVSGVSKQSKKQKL
EZH2 within the PRC2 complex, sequence (Q09028 whole entry partner): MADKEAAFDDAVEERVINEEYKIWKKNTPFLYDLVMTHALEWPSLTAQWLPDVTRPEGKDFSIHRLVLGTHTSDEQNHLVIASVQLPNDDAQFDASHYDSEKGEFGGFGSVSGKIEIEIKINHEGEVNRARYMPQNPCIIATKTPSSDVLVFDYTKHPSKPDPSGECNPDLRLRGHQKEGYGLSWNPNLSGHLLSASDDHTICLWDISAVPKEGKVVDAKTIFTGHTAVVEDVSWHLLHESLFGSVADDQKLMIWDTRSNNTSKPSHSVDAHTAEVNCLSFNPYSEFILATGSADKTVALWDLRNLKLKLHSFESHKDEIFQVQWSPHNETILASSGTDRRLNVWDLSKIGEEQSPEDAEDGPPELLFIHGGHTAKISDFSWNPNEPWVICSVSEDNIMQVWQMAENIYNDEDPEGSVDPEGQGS
EZH2 within the PRC2 complex, sequence (Q6ZN18 whole entry partner): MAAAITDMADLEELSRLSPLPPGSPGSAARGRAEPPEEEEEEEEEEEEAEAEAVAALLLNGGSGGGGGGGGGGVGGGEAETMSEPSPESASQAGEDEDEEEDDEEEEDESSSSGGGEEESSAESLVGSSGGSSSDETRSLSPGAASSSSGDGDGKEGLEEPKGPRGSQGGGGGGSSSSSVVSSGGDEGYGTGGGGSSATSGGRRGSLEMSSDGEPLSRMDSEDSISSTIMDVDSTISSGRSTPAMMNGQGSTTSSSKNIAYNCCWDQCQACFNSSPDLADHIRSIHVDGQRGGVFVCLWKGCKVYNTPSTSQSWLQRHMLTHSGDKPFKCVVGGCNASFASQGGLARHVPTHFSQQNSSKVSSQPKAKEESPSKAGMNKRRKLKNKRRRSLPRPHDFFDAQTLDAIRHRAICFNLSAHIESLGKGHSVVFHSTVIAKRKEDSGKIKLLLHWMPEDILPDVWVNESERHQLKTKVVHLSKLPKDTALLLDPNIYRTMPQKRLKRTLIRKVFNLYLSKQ

With `CCCc1cc(C)[nH]c(=O)c1CNC(=O)c1cc(Br)cc(NC(C)C)c1C` [Example 1, 5-Bromo-2-methyl-3-[(1-methylethyl)amino]-N-[(6-methyl-2-oxo-4-propyl-1,2-dihydro-3-pyridinyl)methyl]benzamide] as the compound, how does the IC50 read?
The IC50 was 501 nM.

Which IC50 does the source give for `CCCc1cc(C)[nH]c(=O)c1CNC(=O)c1cc(-c2ccc(N3CCN(C)CC3)nc2)cc(NC(C)C)c1C` [Example 2, 2-Methyl-3-[(1-methylethyl)amino]-N-[(6-methyl-2-oxo-4-propyl-1,2-dihydro-3-pyridinyl)methyl]-5-[6-(4-methyl-1-piperazinyl)-3-pyridinyl]benzamide] here?
The IC50 was 40 nM.

Which IC50 does the source give for `Cc1cc(Cc2ccccc2)c(CNC(=O)c2cc(Br)cc(NC(C)C)c2C)c(=O)[nH]1` [Example 4, 5-Bromo-2-methyl-3-[(1-methylethyl)amino]-N-{[6-methyl-2-oxo-4-(phenylmethyl)-1,2-dihydro-3-pyridinyl]methyl}benzamide] here?
Its IC50 is 50 nM.

`CCC(C)Oc1cc(Br)cc(C(=O)NCc2c(C)cc(C)[nH]c2=O)c1C` (centres unmarked) [Example 20, 5-Bromo-3-(sec-butoxy)-N-((4,6-dimethyl-2-oxo-1,2-dihydropyridin-3-yl)methyl)-2-methylbenzamide] was tested. Which IC50 did it give?
The IC50 was 13 nM.

With `Cc1cc(C)c(CNC(=O)c2cc(Cl)cc(OC(C)C)c2Cl)c(=O)[nH]1` [Example 24, 2,5-Dichloro-N-[(4,6-dimethyl-2-oxo-1,2-dihydro-3-pyridinyl)methyl]-3-[(1-methylethyl)oxy]benzamide] as the compound, how does the IC50 read?
The IC50 was 250 nM.

How did the IC50 turn out when `Cc1cc(C)c(CNC(=O)c2cc(Cl)cc(NC(C)CO)c2C)c(=O)[nH]1` (centres unmarked) [Example 26, 5—Chloro-N-[(4,6-dimethyl-2-oxo-1,2-dihydro-3-pyridinyl)methyl]-3-[(2-hydroxy-1-methylethyl)amino]-2-methylbenzamide] was run?
Its IC50 is 1000 nM.

Which IC50 does the source give for `COc1cccc(C(=O)NCc2c(C)cc(C)[nH]c2=O)c1C` [Example 36, N-((4,6-dimethyl-2-oxo-1,2-dihydropyridin-3-yl)methyl)-3-methoxy-2-methylbenzamide] here?
The IC50 was 2500 nM.

`CCC(C)Oc1cc(C#N)cc(C(=O)NCc2c(C)cc(C)[nH]c2=O)c1C` (centres unmarked) [Example 44, 3-(sec-Butoxy)-5-cyano-N-((4,6-dimethyl-2-oxo-1,2-dihydropyridin-3-yl)methyl)-2-methylbenzamide] was tested. Which IC50 did it give?
The IC50 was 316 nM.

Source: patent publication US10478426B2, “Enhancer of Zeste Homolog 2 inhibitors” (GlaxoSmithKline LLC, priority 2012, dated 2019)
